Earlier results, collected in patent US20230330238A1, “CHIMERIC CONJUGATES FOR DEGRADATION OF VIRAL AND HOST PROTEINS AND METHODS OF USE” (Dana-Farber Cancer Institute, Inc., priority 2020, published 2023).

Conditions: FIG. 8A, identical to FIG. 1C in Bernal F., et al. 2007; cited from earlier work

LSQETF(R8)DLWKLL(S5)EN [SAH-p53-4]
α-helical stabilization (helicity by circular dichroism): more stable than SAH-p53-1-3
